Here are results for 33 compounds from PMC6792352, “Limited Chemical Structural Diversity Found to Modulate Thyroid Hormone Receptor in the Tox21 Chemical Library” (Environmental Health Perspectives, 2019).

The nature of the series: in vitro. To be noted: rat, gh3-tre-luc cells.

Structures can show the parent of a compound that is named as a salt.

In general, CC50 refers to the concentration giving 50% cytotoxicity. Lower therefore signals greater toxicity to the cells. `NC(=S)Nc1cccc2ccccc12` [1-(1-Naphthyl)-2-thiourea] came in with a half-maximal cytotoxic concentration (CC50) at 24 h (AC50 (uM) modified / 1000, Tox21_110001=Tox21_203002, viability, 1 nM T3 present, 24 h) above 5 µM.
For the setting “AC50 (uM) modified / 1000”, `OCCN1CCN(CCCN2c3ccccc3Sc3ccc(C(F)(F)F)cc32)CC1` [Fluphenazine] had a CC50 at 24 h of 5.76 µM.
Consider `Cc1ccc(N)c(C)c1` [2,4-Dimethylaniline], for which the CC50 at 24 h (AC50 (uM) modified / 1000) is above 90 µM.
On the same count and under the same terms, the value for `CCOC(=O)c1ccccc1` [Ethyl benzoate] was above 90 µM.
`OC[P+](CO)(CO)CO` [Tetrakis(hydroxymethyl)phosphonium sulfate] displayed a CC50 at 24 h (AC50 (uM) modified / 1000, Tox21_110001=Tox21_200928, viability, 1 nM T3 present, 24 h) above 90 µM.
In turn, `CC(C)CC(=O)OCc1ccccc1` [Benzyl 3-methylbutanoate] returned a CC50 at 24 h (AC50 (uM) modified / 1000) above 90 µM.
On the same count and under the same terms, as for `COc1cc(NS(=O)(=O)c2ccc(N)cc2)ncn1` [Sulfamonomethoxine], the figure is above 20 µM.
`CCCCN(CCCC)N=O` [N-Nitrosodibutylamine]: for the setting “AC50 (uM) modified / 1000, Tox21_110001=Tox21_202334, viability, 1 nM T3 present, 24 h”, the CC50 at 24 h was above 90 µM.
The compound `CCOc1ccc2c3c1O[C@H]1[C@@H](O)C=C[C@H]4[C@@H](C2)N(C)CC[C@@]341` [Ethylmorphine] returned a CC50 at 24 h (AC50 (uM) modified / 1000, Tox21_110001=Tox21_112610, viability, 1 nM T3 present, 24 h) above 50 µM.
For `CCN(CC)CCOC(=O)C(O)(c1ccccc1)c1ccccc1` [Benactyzine], the 50% cytotoxic concentration (CC50) at 24 h (AC50 (uM) modified / 1000) was above 50 µM.
Consider `Clc1ccc(C(Cn2ccnc2)OCc2c(Cl)cccc2Cl)c(Cl)c1` (stereo not drawn) [Isoconazole], for which the 50% cytotoxic concentration (CC50) at 24 h (AC50 (uM) modified / 1000) was found to be 13.8 µM.
The compound `CC1CCc2c(N3CCC(O)CC3)c(F)cc3c(=O)c(C(=O)O)cn1c23` (stereo not drawn) [Nadifloxacin] gave a CC50 at 24 h (AC50 (uM) modified / 1000) above 50 µM.
Same read-out and setting: the value for `O=C(O)c1ccc(Cl)c(Cl)c1` [3,4-Dichlorobenzoic acid] was above 90 µM; that for `CC(COc1ccc(Oc2ccccc2)cc1)Oc1ccccn1` (stereo not drawn) [Pyriproxyfen] was above 90 µM; that for `Cc1cc(S(=O)(=O)O)c(N)cc1Cl` [2-Amino-4-chloro-5-methylbenzenesulfonic acid] was above 90 µM.
Consider `C[C@]12CCC(=O)C[C@@H]1CC[C@@H]1[C@@H]2CC[C@]2(C)C=CC[C@@H]12` [Androstenone], for which the half-maximal cytotoxic concentration (CC50) at 24 h (AC50 (uM) modified / 1000) is above 50 µM.
Still for that read-out and setting: the value for `O=C1c2ccccc2-c2n[nH]c3cccc1c23` [SP600125] was above 50 µM; that for `O=P(O)(OCc1ccccc1)OCc1ccccc1` [Dibenzyl phosphate] was above 90 µM; that for `Clc1cccc(-c2cc(Cl)cc(Cl)c2)c1` [Aroclor 1016] was above 90 µM.
On the same count and under the same terms, as for `OC1OCCOC1O` (stereo not drawn) [1,4-Dioxane-2,3-diol], the figure is above 90 µM; as for `CCCCCCCCCCCCCCCCN` [Hexadecylamine], above 50 µM.
On the same count and under the same terms, the value for `CCN(CC)c1c([N+](=O)[O-])cc(C(F)(F)F)c(N)c1[N+](=O)[O-]` [Dinitramine] was 85.3 µM.
Turning to `CCCCC(CC)C(=O)Cl` (stereo not drawn) [2-Ethylhexanoyl chloride], the cytotoxic concentration (CC50) at 24 h (AC50 (uM) modified / 1000) was above 90 µM.
Same read-out and setting: the value for `CCN1C(=O)NC(c2ccccc2)C1=O` (stereo not drawn) [Ethotoin] was above 20 µM; that for `Cc1cc(Nc2ccccc2C(=O)O)ccc1Cl` [2-[(4-Chloro-3-methylphenyl)amino]benzoic acid] was above 50 µM; that for `c1ccc(CCNc2nc(-c3ccccc3)cs2)cc1` [Fanetizole] was above 50 µM.
Same read-out and setting: as for `CCN1/C(=C/C=C/c2sc3ccccc3[n+]2CC)Sc2ccccc21` [3,3'-Diethylthiacarbocyanine iodide], the figure is 1.67 µM.
With `CC1=CC[C@H]2C[C@@H]1C2(C)C` [(-)-alpha-Pinene], the CC50 at 24 h (AC50 (uM) modified / 1000) was above 90 µM.
Still for that read-out and setting: the value for `C=C1/C(=C\C=C2/CCC[C@]3(C)[C@@H]([C@H](C)/C=C/[C@H](C)C(C)C)CC[C@@H]23)C[C@@H](O)C[C@@H]1O` [1-alpha-Hydroxyergocalciferol] was 37.5 µM; that for `CO[Si](C)(OC)c1ccccc1` [Dimethoxy(methyl)phenylsilane] was above 90 µM; that for `S=C(SSSSSSC(=S)N1CCCCC1)N1CCCCC1` [Bis(1-piperidinylthioxomethyl)hexasulfide] was 0.0827 µM.
Same read-out and setting: as for `COc1ccc(CCNCC(O)COc2cccc(C)c2)cc1OC` (stereo not drawn) [Bevantolol hydrochloride], the figure is 20.6 µM; as for `CC(C)=CCCC(C)C=O` (stereo not drawn) [2,6-Dimethylhept-5-enal], above 90 µM.
